Measured values published in paper PMC11591545 (Antibiotics, 2024).
≈ marks a conversion by molar mass, not a printed value. Like-named read-outs stand apart in the source and are kept apart here.

Legend:
[1] = test system: S. aureus infection isolates; experiment: MIC strips test and broth microdilution assay according to EUCAST; type: cell-based, Staphylococcus aureus
Method: The MIC was tested with the MIC strips test (Liofilchem, Roseto degli Abruzzi, Italy) and broth microdilution assay according to EUCAST standards and the manufacturer’s instructions. All patients with VAD-associated infections were included in a register study after providing informed consent. A positive vote of the ethics committee of Heidelberg University Hospital was obtained before the start of the study (S-674/2022). […] Clinical data and laboratory and microbiological results were extracted.

clinical [2] = details: human, serum, iv, 1500 mg; SD
Method: (§1) Sampling was routinely performed on three occasions for each patient at day 1 (30 min after the end of the infusion), day 7 (before redosing), and day 42 (before redosing). Blood samples were centrifuged (5 min, 4000 rpm) immediately after collection and aliquoted into 2 mL propylene tubes (Eppendorf, Hamburg, Germany). Aliquots were stored at −20 °C within 60 min after sample collection for a maximum of 4 weeks until assay. […] To obtain the unbound fraction, samples were prepared by solid phase extraction using a Nanosep® filter (Pall, New York, NY, USA) [18]. The limit of quantification (QL) was 12.5 mg/L for the total concentration and 1 mg/L for the unbound fraction [18].

clinical [3] = details: human, in vivo, iv
[4] = fixed in the final model, based on a previous reported value; cited from earlier work
[5] = human
Method: as §1

[6] = label; cited from earlier work
[7] = serum, mean ± SD
Method: as §1

[8] = in vivo
[9] = cited from earlier work
S. aureus = experiment: Individual fAUC24 h/MIC at the end of the dosing interval in VAD patients; details: last 24 h before redosing
Method: To use a conservative approach in suppressive therapy reflecting efficacy in the crucial phase before redosing, the AUC was calculated at the end of the dosing interval (last 24 h before redosing) [21].

CN[C@H]1C(=O)N[C@@H]2Cc3ccc(cc3)Oc3cc4cc(c3O[C@@H]3O[C@H](C(=O)O)[C@@H](O)[C@H](O)[C@H]3NC(=O)CCCCCCCCC(C)C)Oc3ccc(cc3Cl)[C@@H](O)[C@@H]3NC(=O)[C@H](NC(=O)[C@@H]4NC(=O)[C@@H](NC2=O)c2cc(cc(O)c2Cl)Oc2cc1ccc2O)c1ccc(O)c(c1)-c1c(O[C@H]2O[C@H](CO)[C@@H](O)[C@H](O)[C@@H]2O)cc(O)cc1[C@@H](C(=O)NCCCN(C)C)NC3=O [dalbavancin]
MIC ([1]; isolate of patient 1): 0.064 µg/mL (≈ 0.0352 µM) | MIC ([1]; isolate of patient 2): 0.064 µg/mL (≈ 0.0352 µM) | MIC ([1]; isolate of patient 5): 0.094 µg/mL (≈ 0.0517 µM) | MIC ([1]; isolate of patient 7): 0.047 µg/mL (≈ 0.0259 µM) | MIC ([1]; isolate of patient 8): 0.047 µg/mL (≈ 0.0259 µM) | MIC ([1]; isolate of patient 9): 0.064 µg/mL (≈ 0.0352 µM) | MIC ([1]; isolate of patient 10): 0.125 µg/mL (≈ 0.0688 µM) | MIC ([1]; isolate of patient 11): 0.064 µg/mL (≈ 0.0352 µM) | MIC ([1]; isolate of patient 12): 0.047 µg/mL (≈ 0.0259 µM) | MIC ([1]; isolate of patient 13): 0.064 µg/mL (≈ 0.0352 µM) | level at 0.5 h (clinical [2]): 218000 ± 65900 ng/mL | level at 168 h (clinical [2]): 41100 ± 11100 ng/mL | level at 1008 h (clinical [2]): 13200 ± 9900 ng/mL | Vd (clinical [3]): 21.9 L | clearance (clinical [3]): 0.833 mL/min | Q, inter-compartmental clearance [4]: 0.476 L/h | observed protein binding [5]: 96-98% | labeled protein binding [6]: 93% | fcday1 (unbound concentration day 1) ([7]; end of infusion after the first dose): 6.3 ± 2.7 | fcday8 (unbound concentration day 8) ([7]; trough by the end of the first week): 1.3 ± 0.6 | CL, bootstrap mean (CI 95%) [8]: 0.050 (0.044–0.055) L/h | V1, bootstrap mean (CI 95%) [8]: 6.42 (5.65–7.31) L | V1, central volume of distribution, estimate [8]: 6.5 L | V2, bootstrap mean (CI 95%) [8]: 14.99 (12.46–18.67) L | V2, peripheral volume of distribution, estimate [8]: 15.4 L | population VD ([9]; earlier population PK studies): 15.0 to 16.7 L | half-life ([9]; reported): 15.6 days | clearance (CL) ([9]; three-compartment model, ref Carrothers et al. 14): 0.053 L/h | clearance (CL) ([9]; two-compartment model, ref Buckwalter et al. 11): 0.057 L/h | clearance (CL) ([9]; two-compartment model, ref Cojutti et al. 13): 0.041 L/h | fAUC24 h/MIC (S. aureus; patient 1): 141 | fAUC24 h/MIC (S. aureus; patient 2): 318 | fAUC24 h/MIC (S. aureus; patient 3, MIC not available, calculated with S. aureus breakpoint 0.25 mg/L): 26 | fAUC24 h/MIC (S. aureus; patient 4, MIC not available, calculated with S. aureus breakpoint 0.25 mg/L): 127 | fAUC24 h/MIC (S. aureus; patient 5): 110 | fAUC24 h/MIC (S. aureus; patient 6, MIC not available, calculated with S. aureus breakpoint 0.25 mg/L): 49 | fAUC24 h/MIC (S. aureus; patient 7): 165 | fAUC24 h/MIC (S. aureus; patient 8): 253 | fAUC24 h/MIC (S. aureus; patient 9): 582 | fAUC24 h/MIC (S. aureus; patient 10): 60 | fAUC24 h/MIC (S. aureus; patient 11): 311 | fAUC24 h/MIC (S. aureus; patient 12): 104 | fAUC24 h/MIC (S. aureus; patient 13): 84
